Laboratory results: patent US20260174780A1, “BISMUTH-THIOL COMPOSITIONS AND METHODS FOR TREATING INFLAMMATORY DISEASES” (Microbion Corporation, priority 2022, published 2026)
Entries after “also recorded” stand apart in the source; their conditions may differ.

Columns and labels:
[1] = system: NLRP3; assay: qPCR of NLRP3 in A549 cells; format: cell-based, human; details: 0.5-4 μg/mL, 24 hours, compared to untreated cells
Protocol: Protocol: A549 cells were grown in tissue culture flasks and a 24-well plate was seeded with 2×10^5 cells/well and incubated at 37° C. and 5% CO2 for 48 hours. Select wells were treated with either 4 μg/mL, 2 μg/mL, 1 μg/mL, or 0.5 μg/mL BisEDT or left untreated as a control and incubated at 37° C. and 5% CO2 for 24 hours. Cell culture supernatant was collected from each well and stored at −20° C. until further analysis. Cells were collected for RNA isolation using Qiagen RNeasy kit using manufacturer's instructions. Briefly, genomic DNA was degraded with DNase (Roche) and samples were incubated at 37° C. for 1 hour followed by 3 μL DNase inactivation reagent (Invitrogen) incubated at 37° C. for 2 minutes. Samples were centrifuged at maximum speed for 5 minutes to remove the inactivation reagent. RNA concentration and quality was evaluated using a Nanodrop. RNA samples were utilized to generate cDNA using cDNA synthesis kit (Bio-Rad). qPCR for NLRP3 and actin (housekeeping gene) was conducted using SYBR green kit (Bio-Rad) along with standard.

[2] = system: TGF-β; assay: TGF-β expression in plasma of M. avium-infected mice; format: in vivo; details: 28 days treatment, low, med and high dose, compared to vehicle
Protocol: Protocol: M. avium infection was initiated in mice, and 3 weeks were allowed to pass to establish the infection. The animals were treated for 28 days and grouped according to dosage: vehicle, low dose pravibismane, med dose pravibismane, and high dose pravibismane. At the end of treatment, plasma samples were collected for analysis.

[3] = system: AIM2 inflammasome; assay: RT-qPCR of AIM2 inflammasome expression in THP-1 macrophages, uninfected or infected; format: cell-based
Protocol: THP-1 macrophages were differentiated with 50 ng/ml PMA for 24 hours, followed by 24 hours in media prior to infection. Differentiated THP-1 macrophages were infected with M. avium or M. abscessus for 1 hour with an MOI of 5. Infected cells were washed twice, followed by 1 hour of antibiotic treatment with 200 μg/ml of amikacin to remove extracellular bacteria. After the antibiotic treatment step, cells were washed once more and BisEDT (BIZ) was added at the indicated concentrations. The treatments (see Table 2) included: (1) uninfected, (2) uninfected+range of BisEDT, (3) untreated+infected with M. avium, (4) M. avium infected+BIZ, (5) untreated+M. abscessus, and (6) M. abscessus infected+BIZ. The time points for sample preparation were 48 hours post infection. CFUs were determined as described above and RNA was collected from similar experiments.
THP-1 RNA from the cells was isolated using the Rneasy mini kit (Qiagen), followed by treatment with Dnase 1 recombinant (Roche Diagnostics) for 1 hour at 37° C. to remove contaminating genomic DNA. The DNase was inactivated with Turbo DNase-inactivation reagent (Turbo DNA-free kit, Thermo Fisher Scientific) for 2 min at 37° C. Inactivation reagent was removed via centrifugation for 1 min at 10,000×g, and RNA transferred to new collection tubes. RNA samples were stored at […] for future processing. cDNA was transcribed from host RNA using the iScript cDNA synthesis kit (Bio-Rad). The quality of cDNA was tested by PCR with Gold 360 master mix using the manufacturer's specifications (Thermo Fisher Scientific). The RT-qPCR reaction was performed using iQ SYBR Green Supermix (Bio-Rad) and an iCycler (CFX Connect Real-Time Systems, Bio-Rad) as previously described (1). Standard curves for each gene were run in each reaction and used to calculate absolute values of mRNA. Gene expression data are presented as relative expression to beta-actin. Primers (Table 3) were designed in Primer3 using sequences from GenBank (National Center for Biotechnology Information).

[4] = system: lung tissue of M. abscessus infected mice; assay: Lung histopathology in chronic M. abscessus infection study; format: in vivo, SCID/Beige mice
Protocol: After 28 days of treatment with BisEDT, animals were euthanized by CO2 and secondary cardiac puncture to collect whole blood for quantitation of BisEDT concentration. Lungs and spleens from the CFU mice were homogenized with 1:1 H2O:Dey-Englev neutralizing broth to deactivate BisEDT. CFUs were determined after serial dilution. Mice for histology and the lung pair split, one half in formalin the other half weighed and snap frozen in liquid N2 to determine tissue concentration of BisEDT.
Samples for histology were processed by the Veterinary Diagnostic Laboratory. Slides were stained with hematoxylin-eosin (HE stain) for general pathology as well as a slide for acid-fast stain to highlight the mycobacterial infection in lung tissue.

[5] = Tolerability of inhaled BisEDT in the M. abscessus mouse study; format: in vivo, SCID/Beige mice; details: inhaled 200 and 1000 μg/kg/day, 28 days
Protocol: A nose-only inhalation exposure chamber from CH technologies was used for this experiment. Mice were split into four treatment groups, Vehicle (buffer containing no BisEDT), amikacin (100 μg/kg/day), BisEDT “low” (200 μg/kg/day), and BisEDT “high” (1000 μg/kg/day). Each treatment group consisted of 12 mice. Ten of these mice were used for CFU determination and two mice are used for histology/pathology/lung pharmacokinetics. Treatment was conducted 6 days a week over the course of 28 days total. To create the correct level of deposited dose of each drug tested, 10 mL of test article were made. Amikacin in HBSS at 20 mg/mL was made and stored at 4° C. until needed. BisEDT “high” at a concentration of 8 mg/mL was made once a week and stored at room temperature. BisEDT “low” was diluted from the 8 mg/mL to 1.6 mg/mL the day of treatment. Each treatment used an LC star reusable nebulizer from Pari. Animals were restrained and placed on the inhalation apparatus. The respiratory hose was connected to the inhalation apparatus and a compressor was connected to the nebulizer. The rate of air flow from the compressor to the nebulizer remained at 8.5 L/minute, which generated a nebulized fog that each mouse breathed in over 45 min.

[6] = system: A549 cells; assay: IL-10 expression (ELISA) in A549 cells; format: cell-based, human; details: 2 μg/mL and 4 μg/mL, 24 h, compared to untreated control
Protocol: A549 cells were differentiated with 50 ng/mL PMA for 24 hours, followed by 24 hours in media prior to infection. Cells were washed with media and treated with insoluble BisEDT or other antibiotics, and incubated for 24 h post treatment. Cell media was then removed and frozen at −80° C. Samples were briefly vortexed before conducting ELISA analysis for IL-10 expression (FIG. 1). BisEDT at a concentration of 2 μg/mL and 4 μg/mL increased the level of IL-10 expression level in A549 cells compared to untreated control.

## C1C[S][Bi]([S]CC[S][Bi]2[S]CC[S]2)[S]1 [BisEDT, 1,2-(Bis(1,3-dithia-2-bismolane)thio)ethane]
[1]
  NLRP3 expression (NLRP3/Actin copy number): inhibits NLRP3 expression
[2]
  expression of TGF-β: consistent reduction
[3]; M. abscessus infected THP-1 cells + 1 μg/ml BisEDT
  AIM2 gene expression relative to beta-actin: even greater increase of expression
[3]; M. avium infected THP-1 cells + BisEDT (2, 4 μg/ml)
  AIM2 gene expression relative to beta-actin: did not change the gene expression
[3]; uninfected THP-1 macrophages, 0.5-4 μg/ml BisEDT, 48 hours
  AIM2 gene expression relative to beta-actin: The higher the dose, the more AIM2 gene expression was reduced; also recorded: inhibits AIM2 and NLRP3 inflammasome expression
[4]; M. abscessus infected, BisEDT treated mice
  inflammatory process caused by the test article in lung: no indication of an inflammatory process caused by the BisEDT
[4]; high-dose (1000 μg/kg/day), FIG. 5D
  lung histomorphologic observation: the inflammatory response was receding and clear airways were observed
[4]; low-dose (200 μg/kg/day), FIG. 5C
  lung histomorphologic observation: decrease of inflammatory infiltrate compared to untreated control and a decrease in hemorrhage
[5]
  body weight at the end of treatment: within the normal weight range
  tolerability: well tolerated
[6]
  IL-10 expression level: increased
